Experiment [1] concerns pancreatic endodermal progenitor cells (cPE cells). In words: Maturation of cPE cells into C-peptide positive cells, chemical screen. To be noted: added individually to basal pancreatic differentiation media.
For experiment [2], the system named is pancreatic endodermal progenitor (cPE) cells. In words: Protocol 2 maturation of cPE cells into cPB cells (INSULIN mRNA, C-peptide cells).
Experiment [3] deals with MEL1 INS GFP/W hESC spheres. In words: hESC suspension differentiation, qPCR of NGN3 and NKX2.2 at day 8. Conditions: compared to RCN condition / during RCN or R treatment. It counts as cell-based, human. The protocol: FIGS. 16A-16D. Published protocols result in precocious endocrine differentiation by NEUROG3 activation. FIGS. 16A-C: Analysis of key pancreatic progenitor markers in clusters differentiated as outlined in FIG. 15A. R=Retinoic acid, C=Cyclopamine, N=Noggin, E=Epidermal growth factor, K=Keratinocyte growth factor, T=TBP, and A=ALK inhibitor. Data shown are representative of two independent experiments. FIG. 16A: PDX1, INS, GCG, NEUROG3, and NKX6.1 protein expression was assessed by whole mount staining of differentiated clusters at indicated time points. Note precocious expression of the endocrine marker NEUROG3 in the absence of NKX6.1 protein at days 6-9. FIGS. 16B and 16C: Flow cytometric quantification of PDX1^+ (orange gate), PDX1^+/NKX6.1^+ (blue gate), INS^+/NKX6.1^+ (green gate), and INS^+/NKX6.1^− (red gate) cells at indicated time points. […]
Total RNA was isolated with TRIZOL (Sigma) or micro/mini RNAeasy kit (Qiagen) and reverse transcribed using the iScript cDNA Kit (Bio-Rad) according to manufacturer's instructions. qPCR analysis was performed on an ABI 7900 HT Fast Real-Time PCR System (Applied Biosystems) and CFX Connect Real Time System (Biorad) using standard protocols. […] P-values were calculated using a two-tailed student's t-test. […]
(In general: Quantitative PCR measures a nucleic acid by following its amplification.)

Experiment [4] relates to PDX1+/NKX6.1+ pancreatic progenitor cells. In words: Direct differentiation of PDX1+/NKX6.1+ progenitors to pancreatic beta cells. It counts as cell-based, human. Conditions: alone; does not maintain any progenitor expression. The method, then:
Variations on the direct differentiation method disclosed herein (see, e.g., Examples 13 and 17) were also developed that yielded efficient and cost-effective production of functional pancreatic beta cells from pluripotent stem cells. Illustrated schematically in FIG. 24, one method according to the disclosure provides embryonic stem cells (e.g., human embryonic stem cells) that were exposed to retinoic acid and incubated for a sufficient time to see expression of PDX1. During this time, the cells were not exposed to bone morphogenetic protein (BMP), which can lead to precocious endocrine differentiation and, ultimately, the production of non-functional polyhormonal cells. PDX1^+ cells were then exposed to 50 ng/ml epidermal growth factor (EGF) and 50 ng/ml keratinocyte growth factor (KGF or K) in DMEM basal media containing IX GLUTAMAX™ (Invitrogen), IX non-essential amino acids (Invitrogen) and serum-free IX B27supplement (Life Technologies) for an extended period of 24-48 hours under the culture conditions disclosed herein. The extended incubation of pancreatic progenitor PDX1^+ cells in the absence of BMP led to the efficient production of […] pancreatic progenitor cells. The PDX1^+NKX6.1^+cells were then incubated in an optimized combination of growth factors to induce NGN3 expression while maintaining expression of PD1 and NKX6.1. […]

On to `O=C1O[C@H]([C@@H](O)CO)C(O)=C1O` [Vitamin C], for which the “percentage of C-peptide positive cells, individual supplementation” value in experiment [1] is recorded as “effective in increasing”. Further, the “number of C-peptide positive cells co-expressing PDX1 and NKX6.1” value in experiment [2] is “increased”. Also, in experiment [2] (day 21, compared to DMSO controls), the “expression of the INSULIN gene (mRNA)” value is on record as “promoted expression”. In addition, in experiment [3], the “NEUROG3 (NGN3) and NKX2.2 mRNA transcripts” value is given as “did not significantly lower”.

`C[C@H](NC(=O)Cc1cc(F)cc(F)c1)C(=O)N[C@@H]1C(=O)N(C)c2ccccc2-c2ccccc21` [gamma secretase inhibitor XX]: the endocrine differentiation result in experiment [4] is “induces endocrine differentiation efficiently”.

For the origin of these results see patent US11332716B2, “Methods and compositions for producing pancreatic beta cells” (The Regents of the University of California, priority 2015, dated 2022).
